Results from ChEMBL document CHEMBL4011588, “Design, synthesis, and biological evaluation of novel 4-anilinoquinazoline derivatives bearing amino acid moiety as potential EGFR kinase inhibitors” (Eur J Med Chem, 2017).
The source made the active and inactive calls. The calls are words filed in the database; no cut-off is given here.

Legend:
[1] = molecular target: Epidermal growth factor receptor (Homo sapiens, UniProt P00533); experiment: Inhibition of EGFR (unknown origin) measured after 40 mins by Kinase Glo luminescence assay
HepG2 [2] = experiment: Antiproliferative activity against human HepG2 cells after 72 hrs by sulforhodamine B assay; type: functional, cell-based; details: HepG2, 72 h
Aurora kinase B = Aurora kinase B (Homo sapiens, UniProt Q96GD4); experiment: Inhibition of Aurora B (unknown origin) measured after 40 mins by Kinase Glo luminescence assay
HepG2 [3] = experiment: Induction of apoptosis in human HepG2 cells assessed as late apoptotic cells at 10 uM after 24 to 72 hrs by Annexin V-FITC/propidium iodide staining based flow cytometric method (reference value: 4.56%); type: functional
HepG2 [4] = experiment: Induction of apoptosis in human HepG2 cells assessed as early apoptotic cells at 10 uM after 24 to 72 hrs by Annexin V-FITC/propidium iodide staining based flow cytometric method (reference value: 1.28%); type: functional
[5] = molecular target: Dual specificity mitogen-activated protein kinase kinase; MEK1/2 (Homo sapiens, UniProt P36507+Q02750); experiment: Inhibition of MEK (unknown origin) measured after 40 mins by Kinase Glo luminescence assay
[6] = molecular target: RAF proto-oncogene serine/threonine-protein kinase (Homo sapiens, UniProt P04049); experiment: Inhibition of RAF (unknown origin) measured after 40 mins by Kinase Glo luminescence assay
[7] = molecular target: Hepatocyte growth factor receptor (Homo sapiens, UniProt P08581); experiment: Inhibition of c-MET (unknown origin) measured after 40 mins by Kinase Glo luminescence assay
[8] = molecular target: Vascular endothelial growth factor receptor 2 (Homo sapiens, UniProt P35968); experiment: Inhibition of VEGFR2 (unknown origin) measured after 40 mins by Kinase Glo luminescence assay
HepG2 [9] = experiment: Induction of apoptosis in human HepG2 cells assessed as decrease in mitochondrial membrane potential after 15 mins to 24 hrs by JC1 staining based fluorescence microscopic method; type: functional, cell-based
HepG2 [10] = experiment: Induction of apoptosis in human HepG2 cells assessed as appearance of apoptotic bodies at 2 to 10 uM after 15 mins to 24 hrs by Hoechst 33258 staining based fluorescence microscopic method; type: functional, cell-based
HepG2 [11] = experiment: Induction of apoptosis in human HepG2 cells assessed as increase in cleaved caspase-3 level at 5 to 10 uM after 30 mins to 24 hrs by Western blot method; type: functional, cell-based
HepG2 [12] = experiment: Induction of apoptosis in human HepG2 cells assessed as early apoptotic cells at 2 uM after 24 to 72 hrs by Annexin V-FITC/propidium iodide staining based flow cytometric method (reference value: 1.28%); type: functional
HepG2 [13] = experiment: Induction of apoptosis in human HepG2 cells assessed as increase in Bax expression at 2 to 10 uM after 30 mins to 24 hrs by Western blot method; type: functional, cell-based
HepG2 [14] = experiment: Induction of apoptosis in human HepG2 cells assessed as increase in cytochrome-c expression at 10 uM after 30 mins to 24 hrs by Western blot method; type: functional, cell-based
HepG2 [15] = experiment: Induction of apoptosis in human HepG2 cells assessed as decrease in Bcl-2 expression at 2 to 10 uM after 30 mins to 24 hrs by Western blot method; type: functional, cell-based
HepG2 [16] = experiment: Induction of apoptosis in human HepG2 cells assessed as early apoptotic cells at 5 uM after 24 to 72 hrs by Annexin V-FITC/propidium iodide staining based flow cytometric method (reference value: 1.28%); type: functional
HepG2 [17] = experiment: Induction of apoptosis in human HepG2 cells after 24 to 72 hrs by Annexin V-FITC/propidium iodide staining based flow cytometric method; type: functional, cell-based
HepG2 [18] = experiment: Induction of apoptosis in human HepG2 cells assessed as late apoptotic cells at 5 uM after 24 to 72 hrs by Annexin V-FITC/propidium iodide staining based flow cytometric method (reference value: 4.56%); type: functional
HepG2 [19] = experiment: Induction of apoptosis in human HepG2 cells assessed as nuclear chromatin condensation at 2 to 10 uM after 15 mins to 24 hrs by Hoechst 33258 staining based fluorescence microscopic method; type: functional, cell-based
HepG2 [20] = experiment: Induction of apoptosis in human HepG2 cells assessed as late apoptotic cells at 2 uM after 24 to 72 hrs by Annexin V-FITC/propidium iodide staining based flow cytometric method (reference value: 4.56%); type: functional

Chain of Aurora kinase B (Q96GD4 whole entry): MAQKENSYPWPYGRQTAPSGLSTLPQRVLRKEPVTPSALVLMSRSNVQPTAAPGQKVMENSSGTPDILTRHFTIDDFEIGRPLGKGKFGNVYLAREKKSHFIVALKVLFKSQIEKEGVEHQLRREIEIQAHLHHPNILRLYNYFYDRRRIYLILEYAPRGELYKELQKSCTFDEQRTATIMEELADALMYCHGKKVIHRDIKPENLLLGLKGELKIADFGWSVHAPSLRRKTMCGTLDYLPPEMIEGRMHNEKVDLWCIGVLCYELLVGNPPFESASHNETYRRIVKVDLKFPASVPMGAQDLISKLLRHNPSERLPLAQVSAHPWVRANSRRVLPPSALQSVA
Chain of Epidermal growth factor receptor (P00533 whole entry): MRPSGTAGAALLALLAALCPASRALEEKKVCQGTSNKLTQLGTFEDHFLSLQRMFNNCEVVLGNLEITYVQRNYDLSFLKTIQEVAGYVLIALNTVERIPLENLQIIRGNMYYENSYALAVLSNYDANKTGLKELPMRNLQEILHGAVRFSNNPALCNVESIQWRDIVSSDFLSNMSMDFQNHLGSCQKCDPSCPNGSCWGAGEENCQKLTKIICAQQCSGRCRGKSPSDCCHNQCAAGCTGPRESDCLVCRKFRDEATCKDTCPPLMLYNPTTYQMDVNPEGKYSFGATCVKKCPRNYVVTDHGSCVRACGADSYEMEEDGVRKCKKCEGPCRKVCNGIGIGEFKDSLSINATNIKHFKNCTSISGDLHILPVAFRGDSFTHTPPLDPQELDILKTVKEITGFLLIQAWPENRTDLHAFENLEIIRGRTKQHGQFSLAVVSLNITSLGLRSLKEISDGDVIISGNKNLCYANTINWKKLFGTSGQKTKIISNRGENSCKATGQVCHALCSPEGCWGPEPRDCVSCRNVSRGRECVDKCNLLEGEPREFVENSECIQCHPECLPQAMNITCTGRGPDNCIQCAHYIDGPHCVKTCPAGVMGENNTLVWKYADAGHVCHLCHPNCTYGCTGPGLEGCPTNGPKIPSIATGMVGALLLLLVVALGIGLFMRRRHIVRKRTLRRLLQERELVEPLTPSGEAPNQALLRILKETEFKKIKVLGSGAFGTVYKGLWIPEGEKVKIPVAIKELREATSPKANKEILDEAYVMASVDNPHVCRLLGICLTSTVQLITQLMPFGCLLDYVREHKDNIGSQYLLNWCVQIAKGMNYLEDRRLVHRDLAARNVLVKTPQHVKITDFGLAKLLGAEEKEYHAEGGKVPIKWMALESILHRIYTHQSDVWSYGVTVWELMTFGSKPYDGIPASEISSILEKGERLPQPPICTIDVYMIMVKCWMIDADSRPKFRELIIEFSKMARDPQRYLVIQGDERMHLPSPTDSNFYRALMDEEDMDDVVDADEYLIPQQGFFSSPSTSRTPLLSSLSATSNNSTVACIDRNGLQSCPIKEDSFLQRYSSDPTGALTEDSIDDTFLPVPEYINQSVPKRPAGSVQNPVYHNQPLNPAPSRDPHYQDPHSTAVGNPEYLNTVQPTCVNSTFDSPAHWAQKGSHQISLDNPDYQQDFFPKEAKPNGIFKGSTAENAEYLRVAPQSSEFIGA
Chain of Vascular endothelial growth factor receptor 2 (P35968 whole entry): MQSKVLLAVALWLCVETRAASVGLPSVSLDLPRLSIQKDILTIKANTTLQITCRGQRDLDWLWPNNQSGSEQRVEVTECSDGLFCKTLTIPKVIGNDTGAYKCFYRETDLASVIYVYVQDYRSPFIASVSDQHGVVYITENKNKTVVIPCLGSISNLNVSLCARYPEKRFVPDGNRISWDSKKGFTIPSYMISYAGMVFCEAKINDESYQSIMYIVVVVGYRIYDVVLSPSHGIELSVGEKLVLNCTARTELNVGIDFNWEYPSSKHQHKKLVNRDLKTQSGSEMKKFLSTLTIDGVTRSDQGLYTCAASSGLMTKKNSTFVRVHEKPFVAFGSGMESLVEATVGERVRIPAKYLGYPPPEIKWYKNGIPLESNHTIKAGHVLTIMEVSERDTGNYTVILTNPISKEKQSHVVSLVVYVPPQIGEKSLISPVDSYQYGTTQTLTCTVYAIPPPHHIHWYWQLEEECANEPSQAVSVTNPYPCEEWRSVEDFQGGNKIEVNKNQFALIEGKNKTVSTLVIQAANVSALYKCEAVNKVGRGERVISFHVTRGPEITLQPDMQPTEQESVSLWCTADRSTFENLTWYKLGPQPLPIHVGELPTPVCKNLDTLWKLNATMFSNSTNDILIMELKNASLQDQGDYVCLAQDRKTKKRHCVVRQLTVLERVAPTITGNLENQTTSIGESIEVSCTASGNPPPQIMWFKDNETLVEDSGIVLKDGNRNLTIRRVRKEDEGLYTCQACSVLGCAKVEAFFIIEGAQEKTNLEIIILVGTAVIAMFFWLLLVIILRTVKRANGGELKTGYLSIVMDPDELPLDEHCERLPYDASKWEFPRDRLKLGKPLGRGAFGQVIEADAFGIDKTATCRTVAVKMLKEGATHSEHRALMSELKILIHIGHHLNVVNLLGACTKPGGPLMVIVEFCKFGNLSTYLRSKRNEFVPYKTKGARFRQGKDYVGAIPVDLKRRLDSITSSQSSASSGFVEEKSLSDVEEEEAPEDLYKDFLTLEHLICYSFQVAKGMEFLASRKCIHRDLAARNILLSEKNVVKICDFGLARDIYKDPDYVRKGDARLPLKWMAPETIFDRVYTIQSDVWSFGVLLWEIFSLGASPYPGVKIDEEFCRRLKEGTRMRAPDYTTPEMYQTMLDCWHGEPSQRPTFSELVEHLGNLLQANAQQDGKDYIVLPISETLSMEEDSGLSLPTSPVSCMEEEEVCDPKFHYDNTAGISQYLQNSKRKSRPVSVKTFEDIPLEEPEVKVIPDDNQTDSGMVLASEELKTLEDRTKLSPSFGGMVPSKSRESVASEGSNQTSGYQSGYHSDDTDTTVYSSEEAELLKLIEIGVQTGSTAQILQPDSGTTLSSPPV
Chain of RAF proto-oncogene serine/threonine-protein kinase (P04049 whole entry): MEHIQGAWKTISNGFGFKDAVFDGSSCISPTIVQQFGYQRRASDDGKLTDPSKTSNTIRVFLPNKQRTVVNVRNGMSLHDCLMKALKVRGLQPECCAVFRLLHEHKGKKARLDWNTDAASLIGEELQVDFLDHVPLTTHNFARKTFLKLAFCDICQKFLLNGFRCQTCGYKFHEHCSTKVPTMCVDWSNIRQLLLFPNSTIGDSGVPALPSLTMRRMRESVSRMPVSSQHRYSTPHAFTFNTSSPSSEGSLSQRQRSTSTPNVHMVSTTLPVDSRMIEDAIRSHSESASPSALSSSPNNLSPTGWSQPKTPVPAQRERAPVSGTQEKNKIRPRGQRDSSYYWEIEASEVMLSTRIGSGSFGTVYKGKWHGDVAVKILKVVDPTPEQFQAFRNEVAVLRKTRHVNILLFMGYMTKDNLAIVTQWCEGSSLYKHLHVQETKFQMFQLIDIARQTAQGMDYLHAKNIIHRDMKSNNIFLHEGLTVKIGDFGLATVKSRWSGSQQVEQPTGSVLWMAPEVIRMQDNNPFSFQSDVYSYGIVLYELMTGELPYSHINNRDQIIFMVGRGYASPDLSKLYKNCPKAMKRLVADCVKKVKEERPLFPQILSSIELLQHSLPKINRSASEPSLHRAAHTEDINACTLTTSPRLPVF
Chain of Hepatocyte growth factor receptor (P08581 whole entry): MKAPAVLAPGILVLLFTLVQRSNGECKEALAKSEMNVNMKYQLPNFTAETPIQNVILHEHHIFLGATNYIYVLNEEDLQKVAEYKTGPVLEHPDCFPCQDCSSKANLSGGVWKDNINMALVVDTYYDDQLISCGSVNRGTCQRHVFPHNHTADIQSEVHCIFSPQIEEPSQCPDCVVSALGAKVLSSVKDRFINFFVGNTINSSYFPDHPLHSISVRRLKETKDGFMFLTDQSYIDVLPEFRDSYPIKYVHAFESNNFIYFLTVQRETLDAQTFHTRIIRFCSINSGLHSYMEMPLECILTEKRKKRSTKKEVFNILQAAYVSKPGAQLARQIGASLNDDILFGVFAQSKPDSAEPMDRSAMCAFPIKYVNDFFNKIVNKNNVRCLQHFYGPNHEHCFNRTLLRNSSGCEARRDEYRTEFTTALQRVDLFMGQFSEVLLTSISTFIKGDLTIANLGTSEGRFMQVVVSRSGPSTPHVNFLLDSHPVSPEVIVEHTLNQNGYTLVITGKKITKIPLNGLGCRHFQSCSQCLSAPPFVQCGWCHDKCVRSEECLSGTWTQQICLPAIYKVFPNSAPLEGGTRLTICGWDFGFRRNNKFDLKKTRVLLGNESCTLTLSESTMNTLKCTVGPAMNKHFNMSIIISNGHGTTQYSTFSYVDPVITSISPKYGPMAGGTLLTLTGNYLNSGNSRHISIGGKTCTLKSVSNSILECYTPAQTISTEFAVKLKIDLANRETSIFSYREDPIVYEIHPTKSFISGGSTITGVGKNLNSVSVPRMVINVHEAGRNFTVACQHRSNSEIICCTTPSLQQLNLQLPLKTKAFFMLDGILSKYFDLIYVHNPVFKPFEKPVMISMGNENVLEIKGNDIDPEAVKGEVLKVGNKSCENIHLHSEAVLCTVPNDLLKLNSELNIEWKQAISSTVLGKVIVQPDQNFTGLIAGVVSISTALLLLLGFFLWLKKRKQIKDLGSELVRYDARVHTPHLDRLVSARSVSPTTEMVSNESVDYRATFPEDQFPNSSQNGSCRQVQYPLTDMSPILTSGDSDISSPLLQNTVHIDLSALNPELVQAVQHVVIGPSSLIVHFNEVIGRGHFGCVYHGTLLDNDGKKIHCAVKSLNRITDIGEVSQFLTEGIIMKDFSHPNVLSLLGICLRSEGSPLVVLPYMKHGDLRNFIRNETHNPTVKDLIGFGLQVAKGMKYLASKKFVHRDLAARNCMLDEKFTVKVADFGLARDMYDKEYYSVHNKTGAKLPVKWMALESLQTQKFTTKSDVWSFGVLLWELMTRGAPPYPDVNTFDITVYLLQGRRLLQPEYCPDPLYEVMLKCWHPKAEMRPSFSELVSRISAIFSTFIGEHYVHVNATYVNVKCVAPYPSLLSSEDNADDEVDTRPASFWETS

Structure (SMILES)	IC50 [1] [µM]	IC50 (HepG2 [2]) [µM]	IC50 (Aurora kinase B) [µM]	other results
CC[C@H](C)[C@@H](NC(=O)OC(C)(C)C)C(=O)Nc1ccc2ncnc(Nc3ccc(F)c(Cl)c3)c2c1		> 50	> 100	
CSCC[C@@H](NC(=O)OC(C)(C)C)C(=O)Nc1ccc2ncnc(Nc3cccc(Br)c3)c2c1		> 50	> 100	
CC(C)[C@@H](NC(=O)OC(C)(C)C)C(=O)Nc1ccc2ncnc(Nc3ccc(F)c(Cl)c3)c2c1		> 50	> 100	
C[C@@H](NC(=O)OC(C)(C)C)C(=O)Nc1ccc2ncnc(Nc3cccc(C(F)(F)F)c3)c2c1	> 100	> 50	> 100	
CSCC[C@@H](NC(=O)OC(C)(C)C)C(=O)Nc1ccc2ncnc(Nc3ccc(F)c(Cl)c3)c2c1		> 50	> 100	
CC(C)C[C@@H](NC(=O)OC(C)(C)C)C(=O)Nc1ccc2ncnc(Nc3cccc(C(F)(F)F)c3)c2c1		> 50	> 100	
CC(C)(C)OC(=O)NCC(=O)Nc1ccc2ncnc(Nc3cccc(C(F)(F)F)c3)c2c1		> 50	51	
CSCC[C@@H](NC(=O)OC(C)(C)C)C(=O)Nc1ccc2ncnc(Nc3cccc(C(F)(F)F)c3)c2c1		> 50	> 100	
C[C@@H](NC(=O)OC(C)(C)C)C(=O)Nc1ccc2ncnc(Nc3cccc(Br)c3)c2c1	> 100	> 50	> 100	
Cc1cccc(C)c1Nc1ncnc2ccc(NC(=O)CNC(=O)OC(C)(C)C)cc12		> 50	> 100	
CC(C)[C@@H](NC(=O)OC(C)(C)C)C(=O)Nc1ccc2ncnc(Nc3cccc(Br)c3)c2c1		> 50	> 100	

Continued, in another order:

IC50 [1] [µM]	IC50 (HepG2 [2]) [µM]	IC50 (Aurora kinase B) [µM]	Structure (SMILES)	other results
> 100	> 50	> 100	C[C@@H](NC(=O)OC(C)(C)C)C(=O)Nc1ccc2ncnc(Nc3ccc(F)c(Cl)c3)c2c1	
	> 50	> 100	CC[C@H](C)[C@@H](NC(=O)OC(C)(C)C)C(=O)Nc1ccc2ncnc(Nc3cccc(C(F)(F)F)c3)c2c1	
0.11	1.4		COc1cc2c(Nc3ccc(NC(=O)c4ccccc4)cc3)ncnc2cc1OCCCN1CCOCC1	Activity (HepG2 [3]): 8.86%; Activity (HepG2 [4]): 1.09%
1.02	4.3	> 100	CC(C)[C@@H](NC(=O)OC(C)(C)C)C(=O)Nc1ccc2ncnc(Nc3cccc(C(F)(F)F)c3)c2c1	IC50 [5]: > 100 µM; IC50 [6]: > 100 µM; IC50 [7]: 100 to 500 µM; IC50 [8]: > 100 µM
0.0555	34	> 100	CC[C@H](C)[C@@H](NC(=O)OC(C)(C)C)C(=O)Nc1ccc2ncnc(Nc3cccc(Br)c3)c2c1	
	8.3	6.2	CC(C)(C)OC(=O)NCC(=O)Nc1ccc2ncnc(Nc3cccc(Br)c3)c2c1	Activity (HepG2 [9]): Dose-dependent effect; Activity (HepG2 [10]): Active; Activity (HepG2 [11]): Active; Activity (HepG2 [12]): 2.08%; IC50 [5]: 7.35 µM; IC50 [6]: 17.3 µM; Activity (HepG2 [13]): Active; Activity (HepG2 [14]): Active; Activity (HepG2 [15]): Active; Activity (HepG2 [16]): 1.96%; Activity (HepG2 [3]): 32.19%; Activity (HepG2 [17]): Dose-dependent effect; Activity (HepG2 [18]): 9.25%; Activity (HepG2 [19]): Active; Activity (HepG2 [4]): 1.53%; Activity (HepG2 [20]): 6.38%; IC50 [7]: > 100 µM; IC50 [8]: 18.7 µM
0.145	25	> 100	CC(C)C[C@@H](NC(=O)OC(C)(C)C)C(=O)Nc1ccc2ncnc(Nc3cccc(Br)c3)c2c1	
0.14	13.8	> 100	CC(C)C[C@@H](NC(=O)OC(C)(C)C)C(=O)Nc1ccc2ncnc(Nc3ccc(F)c(Cl)c3)c2c1	
0.017	33	23.7	CC(C)(C)OC(=O)NCC(=O)Nc1ccc2ncnc(Nc3ccc(F)c(Cl)c3)c2c1	
